Source: patent US10285982B2, “3-(1H-pyrrolo[2,3-B]pyridin-2-yl)-1H-pyrazolo[3,4-C]pyridines and therapeutic uses thereof” (Samumed, LLC, priority 2015, dated 2019)
Blank lines part the entries; values can stand above or below the molecule they belong to.

Key:
SW480 colon cancer cells = experiment: Cell viability assay (CellTiter-Blue); assay type: cell-based; conditions: Homo sapiens, 96 h, four days; for inhibition at 10 µM: given where EC50 >10 μM, read-out: percent inhibition at 10 μM
Method: Representative compounds were screened using the following assay procedure to assess the effect on cell viability as described below.
Each compound was dissolved in DMSO as a 10 mM stock and used to prepare compound source plates. Serial dilution (1:3, 8-point dose-response curves from 10 μM to 0.0045 μM) and compound transfer was performed using the ECHO 550 (Labcyte, Sunnyvale, Calif.) into 96-well clear bottom, black-walled plates (Corning-Costar).
Approximately 2×10^3 SW480 colon cancer cells were seeded into each well and allowed to incubate in the presence or absence of compound for four days at 37° C./5% CO2. Eight replicates of DMSO-treated cells served as controls and cells treated with compound were performed in duplicate.
After incubation, 20 μL of CellTiter-Blue (Promega) was added to each well allowed to incubate for approximately 3 hours. This reagent was a buffered solution which contains resazurin, metabolically active cells were able to reduce rezarurin (blue) into resorufin (pink) which was highly fluorescent. This measured fluorescence was used as a readout for cell viability.
After incubation, the plates were read at Ex 560 nm Em 590 nm (Cytation 3, BioTek). Dose-response curves were generated and EC50 concentration values were calculated using non-linear regression curve fit in the GraphPad Prism (San Diego, Calif.) or Dotmatics' Studies Software (Bishops Stortford, UK). For EC50 of >10 μM, the percent inhibition at 10 μM is provided.

[1] = tested on: primary human fibroblasts derived from IPF patients (LL29 cells) treated with TGF-β1; experiment: Inhibition of fibrotic process, αSMA staining in TGF-β1 treated LL29 fibroblasts; assay type: cell-based; conditions: Fibroblast; for EC50: 96 h, % αSMA positive LL29 cells, TGF-β1 20 ng/mL, 4 days; for inhibition at 10 µM: given where EC50 >10 μM, αSMA, LL29 cells, TGF-β1, read-out: percent inhibition at 10 μM
Text: Representative compounds were screened using primary human fibroblasts (derived from IPF patients) treated with TGF-β1 to determine their ability to inhibit the fibrotic process.
Primary human fibroblasts derived from IPF patients (LL29 cells) [^1Xiaoqiu Liu, et. al., “Fibrotic Lung Fibroblasts Show Blunted Inhibition by cAMP Due to Deficient cAMP Response Element-Binding Protein Phosphorylation”, Journal of Pharmacology and Experimental Therapeutics (2005), 315(2), 678-687; ^2Watts, K. L., et. al., “RhoA signaling modulates cyclin D1 expression in human lung fibroblasts; implications for idiopathic pulmonary fibrosis”, Respiratory Research (2006), 7(1), 88] were obtained from American Type Culture Collection (ATCC) and expanded in F12 medium supplemented with 15% Fetal Bovine Serum and Penicillin/Streptomycin.
Each compound was dissolved in DMSO as a 10 mM stock and used to prepare compound source plates. Serial dilution (1:2, 11-point dose-response curves from 10 μM to 1.87 nM) and compound transfer was performed using the ECHO 550 (Labcyte, Sunnyvale, Calif.) into 384-well clear bottom assay plates (Greiner Bio-One) with appropriate DMSO backfill for a final DMSO concentration of 0.1%. LL29 cells are plated at 1,500 cells/well in 80 μL/well F12 medium supplemented with 1% Fetal Bovine Serum. One hour after addition of the cells, TGF-β1 (Peprotech; 20 ng/mL) was added to the plates to induce fibrosis (ref. 1 and 2 above). Wells treated with TGF-β1 and containing DMSO were used as controls. Cells were incubated at 37° C. and 5% CO2 for 4 days. Following incubation for 4 days, SYTOX green nucleic acid stain (Life Technologies [Thermo Fisher Scientific]) was added to the wells at a final concentration of 1 μM and incubated at room temperature for 30 min. Cells were then fixed using 4% formaldehyde (Electron Microscopy Sciences), washed 3 times with PBS followed by blocking and permeabilization using 3% Bovine Serum Albumin (BSA; Sigma) and 0.3% Triton X-100 (Sigma) in PBS. Cells were then stained with antibody specific to α-smooth muscle actin (αSMA; Abcam) (ref. 1 and 2 above) in 3% Bovine Serum Albumin (BSA; Sigma) and 0.3% Triton X-100 (Sigma) in PBS, and incubated overnight at 4° C. Cells were then washed 3 times with PBS, followed by incubation with Alexa Flor-647 conjugated secondary antibody (Life Technologies [Thermo Fisher Scientific]) and DAPI at room temperature for 1 hour. Cells were then washed 3 times with PBS and plates were sealed for imaging. αSMA staining was imaged by excitation at 630 nm and emission at 665 nm and quantified using the Compartmental Analysis program on the CellInsight CX5 (Thermo Scientific). Dead or apoptotic cells were excluded from analysis based on positive SYTOX green staining. % of total cells positive for αSMA were counted in each well and normalized to the average of 11 wells treated with TGF-β1 on the same plate using Dotmatics' Studies Software. The normalized averages (fold change over untreated) of 3 replicate wells for each compound concentration were used to create dose-responses curves and EC50 values were calculated using non-linear regression curve fit in the Dotmatics' Studies Software. For EC50 of >10 μM, the percent inhibition at 10 μM is provided.

SMILES: CCCCC(=O)Nc1cncc(-c2cc3c(-c4cc5c(-c6ccccc6F)ccnc5[nH]4)n[nH]c3cn2)c1 [Compound 75, N-(5-(3-(4-(2-Fluorophenyl)-1H-pyrrolo[2,3-b]pyridin-2-yl)-1H-pyrazolo [3,4-c]pyridin-5-yl)pyridin-3-yl)pentanamide]
- EC50 (SW480 colon cancer cells): 0.242 µM
- EC50 [1]: 0.076 µM

SMILES: O=C(Cc1ccccc1)Nc1cncc(-c2cc3c(-c4cc5c(-c6ccncc6)ccnc5[nH]4)n[nH]c3cn2)c1 [Compound 122, 2-Phenyl-N-(5-(3-(4-(pyridin-4-yl)-1H-pyrrolo[2,3-b]pyridin-2-yl)-1H-pyrazolo[3,4-c]pyridin-5-yl)pyridin-3-yl)acetamide]
- inhibition at 10 µM (SW480 colon cancer cells): 7%
- EC50 (SW480 colon cancer cells): > 10 µM
- EC50 [1]: > 10 µM
- inhibition at 10 µM [1]: 8.1%

SMILES: O=C(Nc1cncc(-c2cc3c(-c4cc5c(-c6cccnc6)ccnc5[nH]4)n[nH]c3cn2)c1)c1ccccc1 [Compound 95, N-(5-(3-(4-(Pyridin-3-yl)-1H-pyrrolo[2,3-b]pyridin-2-yl)-1H-pyrazolo[3,4-c]pyridin-5-yl)pyridin-3-yl)benzamide]
- inhibition at 10 µM (SW480 colon cancer cells): 14.2%
- EC50 (SW480 colon cancer cells): > 10 µM
- EC50 [1]: > 10 µM
- inhibition at 10 µM [1]: 0.8%

SMILES: CC(C)CC(=O)Nc1cncc(-c2cc3c(-c4cc5cccnc5[nH]4)n[nH]c3cn2)c1 [Compound 254, N-(5-(3-(1H-Pyrrolo[2,3-b]pyridin-2-yl)-1H-pyrazolo[3,4-c]pyridin-5-yl)pyridin-3-yl)-3-methylbutanamide]
- inhibition at 10 µM (SW480 colon cancer cells): 20.2%
- EC50 (SW480 colon cancer cells): > 10 µM
- EC50 [1]: 9.98 µM

SMILES: Cn1cc(-c2cc3c(-c4cc5cccnc5[nH]4)n[nH]c3cn2)cn1 [Compound 652, 5-(1-Methyl-1H-pyrazol-4-yl)-3-(1H-pyrrolo[2,3-b]pyridin-2-yl)-1H-pyrazolo[3,4-c]pyridine]
- inhibition at 10 µM (SW480 colon cancer cells): 0%
- EC50 (SW480 colon cancer cells): > 10 µM
- EC50 [1]: 0.473 µM

SMILES: CC(C)CC(=O)Nc1cncc(-c2cc3c(-c4cc5c(-c6ccc(F)cc6)ccnc5[nH]4)n[nH]c3cn2)c1 [Compound 30, N-(5-(3-(4-(4-Fluorophenyl)-1H-pyrrolo[2,3-b]pyridin-2-yl)-1H-pyrazolo [3,4-c]pyridin-5-yl)pyridin-3-yl)-3-methylbutanamide]
- EC50 (SW480 colon cancer cells): 2.47 µM
- EC50 [1]: 0.82 µM

SMILES: Nc1cncc(-c2cc3c(-c4cc5c(-c6ccoc6)ccnc5[nH]4)n[nH]c3cn2)c1 [Compound 311, 5-(3-(4-(Furan-3-yl)-1H-pyrrolo[2,3-b]pyridin-2-yl)-1H-pyrazolo[3,4-c]pyridin-5-yl)pyridin-3-amine]
- inhibition at 10 µM (SW480 colon cancer cells): 5.5%
- EC50 (SW480 colon cancer cells): > 10 µM
- EC50 [1]: 1.03 µM

SMILES: O=C(Nc1cncc(-c2cc3c(-c4cc5c(-c6ccc(F)cc6)ccnc5[nH]4)n[nH]c3cn2)c1)C1CCC1 [Compound 49, N-(5-(3-(4-(4-Fluorophenyl)-1H-pyrrolo[2,3-b]pyridin-2-yl)-1H-pyrazolo [3,4-c]pyridin-5-yl)pyridin-3-yl)cyclobutanecarboxamide]
- EC50 (SW480 colon cancer cells): 4.64 µM
- EC50 [1]: 1.53 µM

SMILES: O=C(Cc1ccccc1)Nc1cncc(-c2cc3c(-c4cc5cccnc5[nH]4)n[nH]c3cn2)c1 [Compound 262, N-(5-(3-(1H-Pyrrolo[2,3-b]pyridin-2-yl)-1H-pyrazolo[3,4-c]pyridin-5-yl)pyridin-3-yl)-2-phenylacetamide]
- inhibition at 10 µM (SW480 colon cancer cells): 26.5%
- EC50 (SW480 colon cancer cells): > 10 µM
- EC50 [1]: > 10 µM
- inhibition at 10 µM [1]: 45.5%

SMILES: CCNCc1cncc(-c2cc3c(-c4cc5c(-c6ccccc6F)ccnc5[nH]4)n[nH]c3cn2)c1 [Compound 62, N-((5-(3-(4-(2-Fluorophenyl)-1H-pyrrolo[2,3-b]pyridin-2-yl)-1H-pyrazolo [3,4-c]pyridin-5-yl)pyridin-3-yl)methyl)ethanamine]
- inhibition at 10 µM (SW480 colon cancer cells): 15.7%
- EC50 (SW480 colon cancer cells): > 10 µM
- EC50 [1]: > 10 µM
- inhibition at 10 µM [1]: 64.9%

SMILES: Oc1cncc(-c2cc3c(-c4cc5c(-c6ccc(F)cc6)ccnc5[nH]4)n[nH]c3cn2)c1 [Compound 533, 5-(3-(4-(4-Fluorophenyl)-1H-pyrrolo[2,3-b]pyridin-2-yl)-1H-pyrazolo[3,4-c]pyridin-5-yl)pyridin-3-ol]
- EC50 (SW480 colon cancer cells): 0.483 µM
- EC50 [1]: 3.54 µM

The next lines start with results.

- EC50 (SW480 colon cancer cells): > 10 µM
SMILES: c1cncc(-c2cc3c(-c4cc5cccnc5[nH]4)n[nH]c3cn2)c1 [Compound 256, 5-(Pyridin-3-yl)-3-(1H-pyrrolo[2,3-b]pyridin-2-yl)-1H-pyrazolo[3,4-c]pyridine]
- inhibition at 10 µM (SW480 colon cancer cells): 19.3%
- EC50 [1]: 1.7 µM

- EC50 (SW480 colon cancer cells): > 10 µM
SMILES: CC(C)CC(=O)Nc1cncc(-c2cc3c(-c4cc5c(-c6ccncc6)ccnc5[nH]4)n[nH]c3cn2)c1 [Compound 114, 3-Methyl-N-(5-(3-(4-(pyridin-4-yl)-1H-pyrrolo[2,3-b]pyridin-2-yl)-1H-pyrazolo[3,4-c]pyridin-5-yl)pyridin-3-yl)butanamide]
- inhibition at 10 µM (SW480 colon cancer cells): 0%
- EC50 [1]: > 10 µM
- inhibition at 10 µM [1]: 0%

- EC50 (SW480 colon cancer cells): > 10 µM
SMILES: CN1CCN(c2ccnc3[nH]c(-c4n[nH]c5cnc(-c6cncc(NC(=O)CC7CCNCC7)c6)cc45)cc23)CC1 [Compound 641, N-(5-(3-(4-(4-Methylpiperazin-1-yl)-1H-pyrrolo[2,3-b]pyridin-2-yl)-1H-pyrazolo[3,4-c]pyridin-5-yl)pyridin-3-yl)-2-(piperidin-4-yl)acetamide]
- inhibition at 10 µM (SW480 colon cancer cells): 13.1%
- EC50 [1]: 4.97 µM

- EC50 (SW480 colon cancer cells): > 10 µM
SMILES: CN(C)Cc1cncc(-c2cc3c(-c4cc5c(-c6ccccc6F)ccnc5[nH]4)n[nH]c3cn2)c1 [Compound 69, 1-(5-(3-(4-(2-Fluorophenyl)-1H-pyrrolo[2,3-b]pyridin-2-yl)-1H-pyrazolo [3,4-c]pyridin-5-yl)pyridin-3-yl)-N,N-dimethylmethanamine]
- inhibition at 10 µM (SW480 colon cancer cells): 13.2%
- EC50 [1]: > 10 µM
- inhibition at 10 µM [1]: 0%

- EC50 (SW480 colon cancer cells): > 10 µM
SMILES: c1cncc(-c2ccnc3[nH]c(-c4n[nH]c5cnc(-c6cncnc6)cc45)cc23)c1 [Compound 111, 3-(4-(Pyridin-3-yl)-1H-pyrrolo[2,3-b]pyridin-2-yl)-5-(pyrimidin-5-yl)-1H-pyrazolo[3,4-c]pyridine]
- inhibition at 10 µM (SW480 colon cancer cells): 17.3%
- EC50 [1]: > 10 µM
- inhibition at 10 µM [1]: 1.4%

- EC50 (SW480 colon cancer cells): > 10 µM
SMILES: O=C(Nc1cncc(-c2cc3c(-c4cc5c(-c6cccc(F)c6)ccnc5[nH]4)n[nH]c3cn2)c1)c1ccccc1 [Compound 11, N-(5-(3-(4-(3-Fluorophenyl)-1H-pyrrolo[2,3-b]pyridin-2-yl)-1H-pyrazolo [3,4-c]pyridin-5-yl)pyridin-3-yl)benzamide]
- inhibition at 10 µM (SW480 colon cancer cells): 46.8%
- EC50 [1]: 4.21 µM

- EC50 (SW480 colon cancer cells): > 10 µM
SMILES: c1csc(-c2ccnc3[nH]c(-c4n[nH]c5cnc(-c6cncc(OC7CCCCC7)c6)cc45)cc23)c1 [Compound 703, 5-(5-(Cyclohexyloxy)pyridin-3-yl)-3-(4-(thiophen-2-yl)-1H-pyrrolo[2,3-b]pyridin-2-yl)-1H-pyrazolo[3,4-c]pyridine]
- inhibition at 10 µM (SW480 colon cancer cells): 2.7%
- EC50 [1]: 1.73 µM
